Consider 22 compounds from US8420830B2, “Macrocyclic factor VIIa inhibitors useful as anticoagulants” (Bristol-Myers Squibb Company, priority 2006, dated 2013).

Where “and” joins values, the source holds several entries; their conditions need not be identical. Equal entries are not always repeated. Structures can show the parent of a compound that is named as a salt.

The target in this experiment is T1, Factor VIIa (Homo sapiens, UniProt P08709).
T1 construct: purchased Haematologic Technologies (purified) or Novo Nordisk (recombinant)
T1 sequence (P08709 213-466 limits assumed): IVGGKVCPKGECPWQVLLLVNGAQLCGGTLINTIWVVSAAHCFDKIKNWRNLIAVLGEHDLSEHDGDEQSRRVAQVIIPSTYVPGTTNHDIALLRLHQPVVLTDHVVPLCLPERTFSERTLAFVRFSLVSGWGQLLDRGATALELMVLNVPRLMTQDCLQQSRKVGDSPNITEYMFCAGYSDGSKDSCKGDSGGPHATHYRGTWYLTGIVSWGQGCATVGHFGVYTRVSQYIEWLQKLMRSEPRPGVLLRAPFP
T1 sequence (P08709 61-212 limits assumed): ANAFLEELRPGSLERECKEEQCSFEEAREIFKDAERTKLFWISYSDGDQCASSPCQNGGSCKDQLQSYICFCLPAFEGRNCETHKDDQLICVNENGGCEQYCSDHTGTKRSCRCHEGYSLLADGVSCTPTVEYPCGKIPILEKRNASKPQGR
T1 sequence (P13726 33-251 partner limits assumed): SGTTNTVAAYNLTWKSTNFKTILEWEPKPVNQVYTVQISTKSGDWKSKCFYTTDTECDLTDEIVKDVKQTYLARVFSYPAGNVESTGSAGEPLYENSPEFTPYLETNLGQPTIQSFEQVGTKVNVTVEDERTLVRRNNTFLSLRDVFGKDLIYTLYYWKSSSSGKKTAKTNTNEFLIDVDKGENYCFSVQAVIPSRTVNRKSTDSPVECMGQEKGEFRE
Description: Factor VIIa assay. Format: biochemical. As to conditions: measured in the Factor VIIa assay described above; several values in a cell are repeat determinations.
A word on the Ki: it is the dissociation constant of the complex between target and ligand, obtained from inhibition or displacement. `CCO[C@H]1COC(=O)Nc2ccc(S(=O)(=O)C3CC3)c(c2)CN(C)C(=O)[C@H](Nc2ccc3cc[nH]c(=O)c3c2)c2ccc1c(C)c2` (single isomer, unassigned) [Example 40] had a Ki of 0.00157 µM.

The compound `Cc1cc2ccc1[C@@H](C)CCC(=O)Nc1ccc(OC(F)(F)F)c(c1)CN(C)C(=O)[C@@H]2Nc1ccc2c(F)c[nH]c(=O)c2c1` (single isomer, unassigned) [Example 42] showed a Ki of 0.0276 µM. The result for `COc1cc2cc(OC)c1CCOC(=O)Nc1cccc(c1)[C@@H](CC(=O)O)NC(=O)[C@@H]2Nc1ccc2nc[nH]c(=O)c2c1` [Example 13, [(2R,5R)-17,20-Dimethoxy-3,12-dioxo-2-(4-oxo-3,4-dihydro-quinazolin-6-ylamino)-13-oxa-4,11-diaza-tricyclo[14.2.2.1^6,10]henicosa-1(19),6,8,10(21),16(20),17-hexaen-5-yl]-acetic acid] reads 0.024 µM and 0.0404 µM; that for `Cc1cc2cc(C)c1CCOC(=O)Nc1cccc(c1)CN(C)C(=O)C2Nc1ccc2cc[nH]c(=O)c2c1` (stereo not shown) [Example 14, 4,17,20-Trimethyl-2-(1-oxo-1,2-dihydro-isoquinolin-7-ylamino)-13-oxa-4,11-diaza-tricyclo[14.2.2.1^6,10]henicosa-1(19),6,8,10(21),16(20),17-hexaene-3,12-dione], 1.52 µM; that for `CCc1cc2ccc1[C@@H](C)COC(=O)Nc1ccc(S(=O)(=O)C3CC3)c(c1)CN(C)C(=O)[C@@H]2Nc1ccc2cc[nH]c(=O)c2c1` [Example 18, (2R,15R)-7-Cyclopropanesulfonyl-17-ethyl-4,15-dimethyl-2-(1-oxo-1,2-dihydro-isoquinolin-7-ylamino)-13-oxa-4,11-diaza-tricyclo[14.2.2.1^6,10]henicosa-1(19),6,8,10(21),16(20),17-hexaene-3,12-dione], 0.00096 µM. Turning to `CC[C@H]1COC(=O)Nc2ccc(S(=O)(=O)C3CC3)c(c2)CN(C)C(=O)[C@H](Nc2ccc3nc[nH]c(=O)c3c2)c2ccc1cc2` [Example 65, (2R,15R)-7-Cyclopropanesulfonyl-15-ethyl-4-methyl-2-(4-oxo-3,4-dihydro-quinazolin-6-ylamino)-13-oxa-4,11-diaza-tricyclo[14.2.2.1^6,10]henicosa-1(19),6,8,10(21),16(20),17-hexaene-3,12-dione], the Ki was 0.0294 µM and 0.034 µM. As to `Cc1cc2ccc1[C@@H](C)COC(=O)Nc1ccc(S(=O)(=O)C3CC3)c(c1)CN(C)C(=O)[C@@H]2Nc1ccc2nc[nH]c(=O)c2c1` [Example 76, (2R,15R)-7-Cyclopropanesulfonyl-4,15,17-trimethyl-2-(4-oxo-3,4-dihydro-quinazolin-6-ylamino)-13-oxa-4,11-diaza-tricyclo[14.2.2.1^6,10]henicosa-1(19),6,8,10(21),16(20),17-hexaene-3,12-dione trifluoroacetate], the Ki was 0.00069 µM and 0.00086 µM and 0.00087 µM and 0.00096 µM and 0.00114 µM and 0.00122 µM. The result for `Cc1cc2ccc1[C@@H](C)COC(=O)Nc1ccc(S(=O)(=O)C3CC3)c(c1)CN(C)C(=O)[C@@H]2Nc1cc2c(=O)[nH]cnc2cc1F` [Example 78, (2R,15R)-7-Cyclopropanesulfonyl-2-(7-fluoro-4-oxo-3,4-dihydro-quinazolin-6-ylamino)-4,15,17-trimethyl-13-oxa-4,1-diaza-tricyclo[14.2.2.1^6,10]henicosa-1(19),6,8,10(21),16(20),17-hexaene-3,12-dione] reads 0.00135 µM and 0.00138 µM; that for `Cc1cc2ccc1[C@@H](C)COC(=O)Nc1ccc(S(=O)(=O)C3CC3)c(c1)CN(C)C(=O)[C@@H]2Nc1ccc2cc[nH]c(=O)c2c1` [Example 79, (2R,15R)-7-Cyclopropanesulfonyl-4,15,17-trimethyl-2-(1-oxo-1,2-dihydro-isoquinolin-7-ylamino)-13-oxa-4,1-diaza-tricyclo[14.2.2.1^6,10]henicosa-1(19),6,8,10(21),16(20),17-hexaene-3,12-dione], 0.00088 µM. The result for `COc1cc2ccc1[C@@H](C)COC(=O)Nc1ccc(S(=O)(=O)C3CC3)c(c1)CN(C)C(=O)[C@@H]2Nc1ccc2cc[nH]c(=O)c2c1` [Example 82, (2R,15R)-7-Cyclopropanesulfonyl-17-methoxy-4,15-dimethyl-2-(1-oxo-1,2-dihydro-isoquinolin-7-ylamino)-13-oxa-4,11-diaza-tricyclo[14.2.2.1^6,10]henicosa-1(19),6,8,10(21),16(20),17-hexaene-3,12-dione] reads 0.00061 µM; that for `C[C@H]1COC(=O)Nc2ccc(S(=O)(=O)C3CC3)c(c2)CN(C)C(=O)[C@H](Nc2ccc3cc[nH]c(=O)c3c2)c2ccc1c(Cl)c2` [Example 84, (2R,15R)-17-Chloro-7-cyclopropanesulfonyl-4,15-dimethyl-2-(1-oxo-1,2-dihydro-isoquinolin-7-ylamino)-13-oxa-4,11-diaza-tricycle [14.2.2.1^6,10]henicosa-1(19),6,8,10(21),16(20),17-hexaene-3,12-dione], 0.00144 µM. On to `Cc1cc2ccc1[C@@H](C)COC(=O)Nc1ccc(N3CCCCS3(=O)=O)c(c1)CN(C)C(=O)[C@@H]2Nc1ccc2cc[nH]c(=O)c2c1` [Example 86, (2R,15R)-7-(1,1-Dioxo-1λ^6-perhydro-1,2-thiazin-2-yl)-4,15,17-trimethyl-2-(1-oxo-1,2-dihydro-isoquinolin-7-ylamino)-13-oxa-4,11-diaza-tricyclo[14.2.2.1^6,10]henicosa-1(19),6,8,10(21),16(20),17-hexaene-3,12-dione], for which the Ki turned out to be 0.00195 µM. `COC(=O)N1CC(=O)Nc2ccc(S(=O)(=O)C(C)C)c(c2)CNC(=O)C(Nc2ccc3nc[nH]c(=O)c3c2)c2cc(C)c(c(C)c2)C1` (stereo not shown) [Example 117, 17,20-Dimethyl-3,12-dioxo-2-(4-oxo-3,4-dihydro-quinazolin-6-ylamino)-7-(propane-2-sulfonyl)-4,11,14-triaza-tricyclo[14.2.2.1^6,10]henicosa-1(19),6,8,10(21),16(20),17-hexaene-14-carboxylic acid methyl ester trifluoroacetate] yielded an inhibitory constant (Ki) of 0.0219 µM. Under `CCC(=O)N1CC(=O)Nc2ccc(S(=O)(=O)C(C)C)c(c2)CNC(=O)C(Nc2ccc3nc[nH]c(=O)c3c2)c2cc(C)c(c(C)c2)C1` (stereo not shown) [Example 118, 17,20-Dimethyl-2-(4-oxo-3,4-dihydro-quinazolin-6-ylamino)-7-(propane-2-sulfonyl)-14-propionyl-4,11,14-triaza-tricyclo[14.2.2.1^6,10]henicosa-1(19),6,8,10(21),16(20),17-hexaene-3,12-dione trifluoroacetate] stands 0.0281 µM; under `CCN1CC(=O)Nc2ccc(S(=O)(=O)C(C)C)c(c2)CNC(=O)C(Nc2ccc3nc[nH]c(=O)c3c2)c2cc(C)c(c(C)c2)C1` (stereo not shown) [Example 121, 14-Ethyl-17,20-dimethyl-2-(4-oxo-3,4-dihydro-quinazolin-6-ylamino)-7-(propane-2-sulfonyl)-4,11,14-triaza-tricyclo[14.2.2.1^6,10]henicosa-1(19),6,8,10(21),16(20),17-hexaene-3,12-dione bistrifluoroacetate], 0.0236 µM; under `Cc1cc2cc(C)c1CN(C(C)C)CC(=O)Nc1ccc(S(=O)(=O)C(C)C)c(c1)CNC(=O)C2Nc1ccc2nc[nH]c(=O)c2c1` (stereo not shown) [Example 124, 14-Isopropyl-17,20-dimethyl-2-(4-oxo-3,4-dihydro-quinazolin-6-ylamino)-7-(propane-2-sulfonyl)-4,11,114-triaza-tricyclo[14.2.2.1^6,10]henicosa-1(19),6,8,10(21),06(20),17-hexaene-3,12-dione bistrifluoroacetate], 0.0332 µM. Under `CC(=O)N1CC(=O)Nc2ccc(S(=O)(=O)C(C)C)c(c2)CNC(=O)C(Nc2ccc3cc[nH]c(=O)c3c2)c2cc(C)c(c(C)c2)C1` (stereo not shown) [Example 128, 14-Acetyl-17,20-dimethyl-2-(1-oxo-1,2-dihydro-isoquinolin-7-ylamino)-7-(propane-2-sulfonyl)-4,11,14-triaza-tricyclo[14.2.2.1^6,10]henicosa-1(19),6,8,10(21),16(20),17-hexaene-3,12-dione trifluoroacetate] stands 0.0266 µM; under `CCOC(=O)CCN1Cc2cccc(c2)NC(=O)OCCc2c(C)cc(cc2C)[C@@H](Nc2ccc3cc[nH]c(=O)c3c2)C1=O` [Example 144, 3-[17,20-Dimethyl-3,12-dioxo-2-(1-oxo-1,2-dihydro-isoquinolin-7-ylamino)-13-oxa-4,11-diaza-tricyclo[14.2.2.1^6,10]henicosa-1(19),6,8,10(21),16(20),17-hexaen-4-yl]-propionic acid ethyl ester], 3.1 µM. The compound `Cc1cc2cc(C)c1CCOC(=O)Nc1cccc(c1)CN(CCC(=O)O)C(=O)C2Nc1ccc2cc[nH]c(=O)c2c1` (stereo not shown) [Example 145, 3-[17,20-Dimethyl-3,12-dioxo-2-(1-oxo-1,2-dihydro-isoquinolin-7-ylamino)-13-oxa-4,11-diaza-tricyclo[14.2.2.1^6,10]henicosa-1(19),6,8,10(21),16(20),17-hexaen-4-yl]-propionic acid] came in with a Ki of 1.3 µM.

`Cc1cc2ccc1[C@@H](C)COC(=O)Nc1cccc(c1)CN(CCNC(=O)OC(C)(C)C)C(=O)[C@@H]2Nc1ccc2cc[nH]c(=O)c2c1` [Example 148, {2-[(2R,15R)-15,17-Dimethyl-3,12-dioxo-2-(1-oxo-1,2-dihydro-isoquinolin-7-ylamino)-13-oxa-4,11-diaza-tricyclo[14.2.2.1^6,10]henicosa-1(19),6,8,10(21),16(20),17-hexaen-4-yl]-ethyl}-carbamic acid tert-butyl ester] displayed a Ki of 2.53 µM. The result for `Cc1cc2ccc1[C@@H](C)COC(=O)Nc1cccc(c1)CN(CCN)C(=O)[C@@H]2Nc1ccc2cc[nH]c(=O)c2c1` [Example 149, (2R,15R)-4-(2-Amino-ethyl)-15,17-dimethyl-2-(1-oxo-1,2-dihydro-isoquinolin-7-ylamino)-13-oxa-4,11-diaza-tricyclo[14.2.2.1^6,10]henicosa-1(19),6,8,10(21),16(20),17-hexaene-3,12-dione] reads 1.21 µM; that for `Cc1cc2ccc1[C@@H](C)COC(=O)Nc1cccc(c1)CN(CCO)C(=O)[C@@H]2Nc1ccc2cc[nH]c(=O)c2c1` [Example 151, (2R,15R)-4-(2-Hydroxy-ethyl)-15,17-dimethyl-2-(1-oxo-1,2-dihydro-isoquinolin-7-ylamino)-13-oxa-4,11-diaza-tricyclo[14.2.2.1^6,10]henicosa-1(19),6,8,10(21),16(20),17-hexaene-3,12-dione], 1.12 µM.
